According to patent publication US9622481B2, “Biofilm-removing antimicrobial compositions and uses thereof” (Kane Biotech Inc., priority 2009, dated 2017):

Tests used:
Format in all cases: cell-based
[1] = system: Escherichia coli biofilm; experiment: Biofilm formation, crystal violet staining, 96-well microplate (Example 1); conditions: reduction in biofilm formation, OD at 630 nm, 26° C., 24 hours
Procedure: (§1) An overnight broth culture of E. coli was grown in TSB and used as inoculum. 96-well microplates containing colony forming antigen medium (for […] species) in the absence and the presence of each compound (PS or BZK) separately and together (PS and BZK) were inoculated and incubated at 26° C. for 24 hours. Growth of planktonic cells based on absorbance at 600 nm using Labsystems Multiskan Ascent microplate reader was determined. Biofilm was measured by discarding the media in the wells, rinsing the well three times with water, and staining the bound cells with crystal violet. The dye was then solubilized with 33% acetic acid, and absorbance at 630 nm was determined using a microtiter plate reader.

[2] = system: Pseudomonas aeruginosa biofilm; experiment: Biofilm formation, crystal violet staining, 96-well microplate (Example 2); conditions: reduction in biofilm formation, OD at 630 nm, 26°, 24 hours
Procedure: as §1, with “P. aeruginosa” for “E. coli”, “26°” for “26° C.”

[3] = system: Staphylococcus epidermidis biofilm; experiment: Biofilm formation, crystal violet staining, 96-well microplate (Example 3); conditions: reduction in biofilm formation, OD at 630 nm, 37° C., 24 hours
Procedure: as §1, with “S. epidermidis” for “E. coli”, “TSB,” for “TSB”, “TSB” for “colony forming antigen medium”, “37°” for “26°”

[4] = system: Escherichia coli; experiment: Minimum inhibitory concentration (MIC) in 96-well microtiter plates; conditions: agent alone, TSB, 37° C., 24 hours
Procedure: (§2) Bacterial strains were grown overnight at 37° C. with 100 rpm shaking in Tryptic Soy Broth (TSB) and diluted to approximately 10^5 CFU/ml. Assays were conducted by methods of minimum inhibitory concentration (MIC) in 96-well microtiter plates as described previously (Amsterdam, D. 1996, In: V. Loman, Ed., “Antibiotics in laboratory medicine”, p. 52-111, Williams and Wilkins, Baltimore, M.D.). Antimicrobials PS and SNP both alone and together were serially diluted in TSB (100 μl), and 100 μl of bacterial suspension was added to each well. Plates were incubated at 37° C. for 24 hours and read at 600 nm using a microtiter plate reader (Multiskan Ascent, Labsystems, Helsinki, Finland).

[5] = system: S. aureus; experiment: as above; conditions: agent alone, TSB, 37° C., 24 hours
Procedure: as §2

[6] = system: Escherichia coli biofilm; experiment: Biofilm formation, crystal violet staining, 96-well microtiter plate (Example 7); conditions: reduction in biofilm formation, OD at 630 nm, 37° C., 24 hours
Procedure: (§3) An overnight broth culture of E. coli was grown in TSB and used as inoculum. 96-well microtiter plate containing TSB in the absence and presence of each compound separately (SMP or CHX) and together (SMP+CHX) were inoculated. The biofilm was grown by incubating at 37° C. for 24 hours. Growth of planktonic cells based on absorbance at 600 nm using Labsystems Multiskan Ascent microplate reader was determined. Biofilm was measured by discarding the media in the wells, rinsing the well three times with water, and staining the bound cells with crystal violet. The dye was then solubilized with 33% acetic acid, and absorbance at 630 nm was determined using a microtiter plate reader.

[7] = system: Pseudomonas aeruginosa biofilm; experiment: Biofilm formation, crystal violet staining, 96-well microplate (Example 8); conditions: reduction in biofilm formation, OD at 630 nm, 24 hours
Procedure: An overnight broth culture of bacteria and yeast were grown in TSB and used as inoculum. 96-well microplates containing TSB (for gram-positive species and yeast) and colony forming unit antigen medium (for gram-negative bacteria) in the absence and the presence of each compound separately (SMP or CHX) and together (SMP+CHX) were inoculated. The biofilm was grown by incubating at 37° C. (for gram-positive bacteria and yeast) and 26° C. (for gram-negative bacteria) for 24 hours. Growth of planktonic cells based on absorbance at 600 nm using Labsystems Multiskan Ascent microplate reader was determined. Biofilm was measured by discarding the media in the wells, rinsing the well three times with water, and staining the bound cells with crystal violet. The dye was then solubilized with 33% acetic acid, and absorbance at 630 nm was determined using a microtiter plate reader.

[8] = system: Staphylococcus epidermidis biofilm; experiment: Biofilm formation, crystal violet staining, 96-well microtiter plate (Example 9); conditions: reduction in biofilm formation, OD at 630 nm, 37° C., 24 hours
Procedure: as §3, with “S. epidermidis” for “E. coli”

[9] = system: Escherichia coli biofilm; experiment: Biofilm formation, crystal violet staining, 96-well microtiter plate (Example 4); conditions: reduction in biofilm formation, OD at 630 nm, 37° C., 24 hours
Procedure: as §3, with “FU)” for “CHX)”, “(SMP+FU)” for “(SMP+CHX)”

[10] = system: Pseudomonas aeruginosa biofilm; experiment: Biofilm formation, crystal violet staining, 96-well microtiter plate (Example 5); conditions: reduction in biofilm formation, OD at 630 nm, 37° C., 24 hours
Procedure: as §3, with “P. aeruginosa” for “E. coli”, “FU)” for “CHX)”, “(SMP+FU)” for “(SMP+CHX)”

[11] = system: Staphylococcus epidermidis biofilm; experiment: Biofilm formation, crystal violet staining, 96-well microtiter plate (Example 6); conditions: reduction in biofilm formation, OD at 630 nm, 37° C., 24 hours
Procedure: as §3, with “S. epidermidis” for “E. coli”, “FU)” for “CHX)”, “(SMP+FU)” for “(SMP+CHX)”

## protamine sulfate [PS]
[1]; PS 12 μg/ml alone
  Biofilm Inhibition by PS: 0.04 OD
[2]; PS 25 μg/ml alone
  Biofilm Inhibition by PS: 0.00 OD
[3]; PS 1.5 μg/ml alone
  Biofilm Inhibition by PS: 0.34 OD
[4]
  MIC: >200 µg/mL
[5]
  MIC: >200 µg/mL

## [H]/N=C(\N/C(=N/[H])NCCCCCCNC(=N)NC(=N)Nc1ccc(Cl)cc1)Nc1ccc(Cl)cc1 [CHX, chlorhexidine]
[6]; CHX 1 μg/ml alone
  Biofilm Inhibition by CHX: 0.04 OD
[7]; CHX 6 μg/ml alone
  Biofilm Inhibition by CHX: 0.66 OD
[8]; CHX 0.5 μg/ml alone
  Biofilm Inhibition by CHX: 0.00 OD

## [Na+].[O-][I+3]([O-])([O-])[O-] [SMP, sodium metaperiodate]
[9]; SMP 250 μg/ml alone
  Biofilm Inhibition by SMP: 0.3 OD
[10]; SMP 250 μg/ml alone
  Biofilm Inhibition by SMP: 0.16 OD
[11]; SMP 250 μg/ml alone
  Biofilm Inhibition by SMP: 0.00 OD
[6]; SMP 250 μg/ml alone
  Biofilm Inhibition by SMP: 0.12 OD
[7]; SMP 125 μg/ml alone
  Biofilm Inhibition by SMP: 0.17 OD
[8]; SMP 250 μg/ml alone
  Biofilm Inhibition by SMP: 0.00 OD

## benzalkonium chloride [BZK]
[1]; BZK 6 μg/ml alone
  Biofilm Inhibition by BZK: 0.14 OD
[2]; BZK 12.5 μg/ml alone
  Biofilm Inhibition by BZK: 0.00 OD
[3]; BZK 0.8 μg/ml alone
  Biofilm Inhibition by BZK: 1.21 OD

## O=c1[nH]cc(F)c(=O)[nH]1 [FU, 5-fluorouracil]
[9]; FU 6.25 μg/ml alone
  Biofilm Inhibition by FU: 0.17 OD
[10]; FU 3.75 μg/ml alone
  Biofilm Inhibition by FU: 0.00 OD
[11]; FU 20 μg/ml alone
  Biofilm Inhibition by FU: 1.43 OD
